According to the NIST ThermoML archive (doi:10.1016/j.jct.2018.04.011):
± gives the expanded uncertainty stated by the source.

Experiments:
[1] = molar heat capacity at constant pressure; settings: 101.33 kPa, DSC
[2] = Crystal; for Normal melting temperature: DTA
[3] = Molar enthalpy of transition or fusion; settings: Crystal; DSC

## COC(=O)c1ccccc1O [methyl 2-hydroxybenzoate]
[1]; 293.15 K, Liquid
  molar heat capacity at constant pressure: 240.4 ± 9.3 J/K/mol
[1]; 294.15 K, Liquid
  molar heat capacity at constant pressure: 241.6 ± 9.4 J/K/mol
[1]; 295.15 K, Liquid
  molar heat capacity at constant pressure: 242.5 ± 9.4 J/K/mol
[1]; 296.15 K, Liquid
  molar heat capacity at constant pressure: 243.3 ± 9.4 J/K/mol
[1]; 297.15 K, Liquid
  molar heat capacity at constant pressure: 243.9 ± 9.4 J/K/mol
[1]; 298.15 K, Liquid
  molar heat capacity at constant pressure: 244.3 ± 9.5 J/K/mol
[1]; 299.15 K, Liquid
  molar heat capacity at constant pressure: 244.8 ± 9.5 J/K/mol
[1]; 300.15 K, Liquid
  molar heat capacity at constant pressure: 245.2 ± 9.5 J/K/mol
[1]; 301.15 K, Liquid
  molar heat capacity at constant pressure: 245.6 ± 9.5 J/K/mol
[1]; 302.15 K, Liquid
  molar heat capacity at constant pressure: 246.1 ± 9.5 J/K/mol
[1]; 303.15 K, Liquid
  molar heat capacity at constant pressure: 246.6 ± 9.6 J/K/mol
[1]; 304.15 K, Liquid
  molar heat capacity at constant pressure: 246.9 ± 9.6 J/K/mol
[1]; 305.15 K, Liquid
  molar heat capacity at constant pressure: 247.1 ± 9.6 J/K/mol
[1]; 306.15 K, Liquid
  molar heat capacity at constant pressure: 247.4 ± 9.6 J/K/mol
[1]; 307.15 K, Liquid
  molar heat capacity at constant pressure: 247.8 ± 9.6 J/K/mol
[1]; 308.15 K, Liquid
  molar heat capacity at constant pressure: 248 ± 9.6 J/K/mol
[1]; 309.15 K, Liquid
  molar heat capacity at constant pressure: 248.3 ± 9.6 J/K/mol
[1]; 310.15 K, Liquid
  molar heat capacity at constant pressure: 248.6 ± 9.6 J/K/mol
[1]; 311.15 K, Liquid
  molar heat capacity at constant pressure: 249.1 ± 9.6 J/K/mol
[1]; 312.15 K, Liquid
  molar heat capacity at constant pressure: 249.4 ± 9.7 J/K/mol
[2]
  Normal melting temperature: -1.66 ± 0.85 °C
[3]
  Molar enthalpy of transition or fusion: 3.89 ± 0.179 kcal/mol

## COC(=O)c1cccc(O)c1 [methyl 3-hydroxybenzoate]
[1]; 293.15 K, Crystal
  molar heat capacity at constant pressure: 200.2 ± 7.8 J/K/mol
[1]; 294.15 K, Crystal
  molar heat capacity at constant pressure: 201.3 ± 7.8 J/K/mol
[1]; 295.15 K, Crystal
  molar heat capacity at constant pressure: 202.6 ± 7.8 J/K/mol
[1]; 296.15 K, Crystal
  molar heat capacity at constant pressure: 203.3 ± 7.9 J/K/mol
[1]; 297.15 K, Crystal
  molar heat capacity at constant pressure: 204.1 ± 7.9 J/K/mol
[1]; 298.15 K, Crystal
  molar heat capacity at constant pressure: 205 ± 7.9 J/K/mol
[1]; 299.15 K, Crystal
  molar heat capacity at constant pressure: 205.6 ± 8 J/K/mol
[1]; 300.15 K, Crystal
  molar heat capacity at constant pressure: 206.2 ± 8 J/K/mol
[1]; 301.15 K, Crystal
  molar heat capacity at constant pressure: 206.7 ± 8 J/K/mol
[1]; 302.15 K, Crystal
  molar heat capacity at constant pressure: 207.5 ± 8 J/K/mol
[1]; 303.15 K, Crystal
  molar heat capacity at constant pressure: 208.2 ± 8.1 J/K/mol
[1]; 304.15 K, Crystal
  molar heat capacity at constant pressure: 208.7 ± 8.1 J/K/mol
[1]; 305.15 K, Crystal
  molar heat capacity at constant pressure: 209.2 ± 8.1 J/K/mol
[1]; 306.15 K, Crystal
  molar heat capacity at constant pressure: 209.8 ± 8.1 J/K/mol
[1]; 307.15 K, Crystal
  molar heat capacity at constant pressure: 210.4 ± 8.1 J/K/mol
[1]; 308.15 K, Crystal
  molar heat capacity at constant pressure: 211 ± 8.2 J/K/mol
[1]; 309.15 K, Crystal
  molar heat capacity at constant pressure: 211.5 ± 8.2 J/K/mol
[1]; 310.15 K, Crystal
  molar heat capacity at constant pressure: 212 ± 8.2 J/K/mol
[1]; 311.15 K, Crystal
  molar heat capacity at constant pressure: 212.6 ± 8.2 J/K/mol
[1]; 312.15 K, Crystal
  molar heat capacity at constant pressure: 213.1 ± 8.3 J/K/mol
[2]; 298.15 K, 101.33 kPa, Pycnometric method
  mass density: 1230 ± 20 kg/m3
[2]
  Normal melting temperature: 71.10 ± 0.41 °C
[3]
  Molar enthalpy of transition or fusion: 4.81 ± 0.112 kcal/mol

## COC(=O)c1ccc(O)cc1 [methyl 4-hydroxybenzoate]
[1]; 293.15 K, Crystal
  molar heat capacity at constant pressure: 209.8 ± 8.1 J/K/mol
[1]; 294.15 K, Crystal
  molar heat capacity at constant pressure: 211 ± 8.2 J/K/mol
[1]; 295.15 K, Crystal
  molar heat capacity at constant pressure: 212.2 ± 8.2 J/K/mol
[1]; 296.15 K, Crystal
  molar heat capacity at constant pressure: 212.8 ± 8.2 J/K/mol
[1]; 297.15 K, Crystal
  molar heat capacity at constant pressure: 213.6 ± 8.3 J/K/mol
[1]; 298.15 K, Crystal
  molar heat capacity at constant pressure: 214.4 ± 8.3 J/K/mol
[1]; 299.15 K, Crystal
  molar heat capacity at constant pressure: 215.2 ± 8.3 J/K/mol
[1]; 300.15 K, Crystal
  molar heat capacity at constant pressure: 215.7 ± 8.4 J/K/mol
[1]; 301.15 K, Crystal
  molar heat capacity at constant pressure: 216.2 ± 8.4 J/K/mol
[1]; 302.15 K, Crystal
  molar heat capacity at constant pressure: 217 ± 8.4 J/K/mol
[1]; 303.15 K, Crystal
  molar heat capacity at constant pressure: 217.8 ± 8.4 J/K/mol
[1]; 304.15 K, Crystal
  molar heat capacity at constant pressure: 218.4 ± 8.5 J/K/mol
[1]; 305.15 K, Crystal
  molar heat capacity at constant pressure: 218.9 ± 8.5 J/K/mol
[1]; 306.15 K, Crystal
  molar heat capacity at constant pressure: 219.3 ± 8.5 J/K/mol
[1]; 307.15 K, Crystal
  molar heat capacity at constant pressure: 220.1 ± 8.5 J/K/mol
[1]; 308.15 K, Crystal
  molar heat capacity at constant pressure: 220.6 ± 8.5 J/K/mol
[1]; 309.15 K, Crystal
  molar heat capacity at constant pressure: 221.2 ± 8.6 J/K/mol
[1]; 310.15 K, Crystal
  molar heat capacity at constant pressure: 221.7 ± 8.6 J/K/mol
[1]; 311.15 K, Crystal
  molar heat capacity at constant pressure: 222.4 ± 8.6 J/K/mol
[1]; 312.15 K, Crystal
  molar heat capacity at constant pressure: 222.8 ± 8.6 J/K/mol
[2]
  Normal melting temperature: 126 ± 0.41 °C
[3]
  Molar enthalpy of transition or fusion: 6.18 ± 0.174 kcal/mol
